Columns and labels:
Drosophila S2 cells = experiment: HoPan treatment of Drosophila S2 cells in combination with CoA or 4′-phosphopantetheine; format: cell-based; details: HoPan treated S2 cells
Protocol: HoPan treatment of Drosophila S2 Cell in combination with CoA or 4′-phosphopantetheine treatment: Drosophila Schneider's S2 cells were maintained at standard conditions as explained above. Cells in the exponential phase of growth were used for all the experiments. Different indicated concentrations of CoA or 4′-phosphopantetheine (deuterium labelled PPanSH(D4) or unlabeled PPanSH) were added to S2 cells either in the presence or absence of 0.5 mM HoPan (Zhou Fang Pharm Chemical, China) for 48 h. Similarly, Drosophila S2 cells were treated with different concentrations of PPanSH(D4) at either 25° C. or 4° C. and cells were then harvested at various time points to access transport of PPanSH(D4). Stable isotope labelled PPanSH containing 4 deuterium atoms was purchased from Syncom (Groningen, The Netherlands) as a sodium salt (chemical structure is provided in FIG. 13A). As a read out cell count, intracellular total CoA and PPanSH levels (both labelled and unlabeled levels wherever appropriate) and histone acetylation levels were analyzed as explained below.
Drosophila S2 Cell Immunofluorescence Staining: For immunofluorescence Drosophila S2 cells were seeded on Poly-L-Lysine coated (Sigma-Aldrich) glass microscope slides and allowed to settle for 45 min. Cells were fixed with 3.7% formaldehyde (Sigma Aldrich) for 20 min, washed briefly with PBS+0.1% Triton-X-100 (Sigma Aldrich) and permeabilized with PBS+0.2% Triton-X-100 for 20 min. The slides were incubated in primary antibody (rabbit anti-AcLys, Cell Signaling Cat No: 9441, 1:500) to visualize histone acetylation levels in PBS+0.1% Triton-X-100 overnight and after an additional washing step in PBS+0.1% Triton-X-100 they were incubated in secondary goat anti-rabbit-Alexa488 antibody (Molecular Probes) for two hours at room temperature (RT). F-actin was detected with Rhodamin-Phalloidin (20 U/ml)(Invitrogen) and DNA by staining with DAPI (0.2 ug/ml) (Thermo Scientific). Finally the samples were mounted in 80% glycerol and analyzed using a Leica fluorescence microscope with Leica software. Adobe Photoshop and Illustrator (Adobe Systems Incorporated, San Jose, Calif., USA) were used for image assembly.

HEK293 cells = experiment: HoPan treatment of mammalian HEK293 cells in combination with CoA or 4′-phosphopantetheine; format: cell-based, human; details: HoPan treated HEK293 cells, compound added to the medium
Protocol: HoPan treatment of mammalian HEK293 Cells in combination with CoA and 4′-phosphopantetheine treatment: HEK293 cells were maintained in dMEM (Invitrogen) supplemented with 10% fetal calf serum (Gibco) and antibiotics (penicillin/streptomycin, Invitrogen). For HoPan treatment, cells were cultured in custom made dMEM without vitamin B5 (Thermo Scientific) supplemented with dialyzed FCS (Thermo Scientific). CoA or PPanSH was added to HEK293 cells for the final concentration of 25 uM, either in the presence or absence of HoPan (0.5 mM) for 4 days, followed by analysis for phenotype and rescue efficiency of CoA and PPanSH.
Western blot analysis and Antibodies: For Western blot analysis, cells were collected and washed with phosphate buffer saline (PBS), followed by centrifugation. The cells were lysed and sonicated in 1X Laemmli Sample Buffer and boiled for 5 min with 5% β-mercaptoethanol (Sigma). Protein content was determined using DC protein assay (BioRad). Equal amounts of protein were loaded on a 10 or 12.5% SDS-PAGE gel, transferred onto PVDF membranes and blocked with 5% milk in PBS/0.1% Tween, followed by overnight incubation with primary antibodies. The primary antibodies used were: rabbit-anti dPANK/fbl, 1:4000 Eurogentec custom made as described previously5, mouse anti-tubulin (Sigma Aldrich Cat no: T5168, 1:5000), anti-acetyl-Histone3 (Active Motif Cat no: 39139, 1:2000), anti GAPDH (Fitzgerald Cat no: 10R-G109a, 1:10000), rabbit anti COASY (Abcam Cat no: AB129012, 1:1000). Appropriate HRP-conjugated secondary antibodies (Amersham) were used and detection was performed using enhanced chemi-luminescence (Pierce cat nog: 32106) and Amersham hyperfilm (GE Healthcare). Band intensities were quantified with Image-studio software.

Q: Which results are given for `CC(C)(COP(=O)(O)OP(=O)(O)OC[C@H]1O[C@@H](n2cnc3c(N)ncnc32)[C@H](O)[C@@H]1OP(=O)(O)O)[C@@H](O)C(=O)NCCC(=O)NCCS` [CoA, Coenzyme A]?
A: intracellular concentration of CoA (Drosophila S2 cells; compound added to the culture medium, HPLC): restored the intracellular concentration of CoA; rescue of HoPan-induced decrease in cell count (Drosophila S2 cells; compound added to the medium): rescued; rescue of HoPan-induced histone acetylation defect (Drosophila S2 cells; compound added to the medium): rescued; intracellular levels of 4′-phosphopantetheine (Drosophila S2 cells; external supplementation, HPLC): significantly increased; rescue of HoPan-induced impaired histone acetylation (HEK293 cells): rescued; rescue of HoPan-induced reduction in cell count (HEK293 cells): rescued; intracellular CoA level (HEK293 cells; HPLC): restored the intracellular concentration of CoA
